Tests used:
[1] = test system: IFNγ stimulated STAT1 phosphorylation on Tyr701 (JAK1/2); assay: JAK1/2 cellular target modulation: IFNγ stimulated phospho-STAT1 in human PBMC; format: cell-based; details: IFNγ 10 ng/ml, read-out: Infγ-STAT1 IC50
Description: (§1) Target modulation was based upon the ability of a compound to inhibit JAK isoform specific phosphorylation of selected substrates. IL-2 stimulated STAT5 phosphorylation on Tyr694 was used to assess JAK1/3 compound selectivity. GM-CSF stimulated STAT5 phosphorylation on Tyr694 was used to assess JAK2 compound selectivity. IFNγ stimulated STAT1 phosphorylation on Tyr701 was used to assess JAK1/2 compound selectivity. IL-12 stimulated STAT4 phosphorylation on Tyr693 was used to assess JAK2/TYK2 compound selectivity. For all four assays, human PBMC from frozen stocks were thawed, pelleted, resuspended in complete media (90% RPMI, 10% heat inactivated FBS, 10 mM HEPES, 47 μM 2-ME, pen/strep) and placed in wells of a 96 well V-bottom plate at 200,000 per well in 120 μl complete media. Compounds were added as 15 μl per well of 10× working stock solutions in complete media with 1% DMSO (or medium with 1% DMSO for controls) and placed on a plate shaker in a 37° C. incubator with 5% CO2 for 1 hour with gentle shaking (setting of 3). Stimulation used the addition of soluble cytokines. For the JAK1/3 phospho-STAT5 assay, 15 μl of 10× working stock recombinant human IL-2 was added to a final concentration of 25 ng/ml. For the JAK2 phospho-STAT5 assay, 15 μl of 10× working stock recombinant human GM-CSF was added to a final concentration of 5 ng/ml. For the JAK1/2 phospho-STAT1 assay, 15 μl of 10× working stock of recombinant human IFNγ was added to a final concentration of 10 ng/ml. For the JAK2/TYK2 phospho-STAT4 assay, 15 μl of 10× working stock of recombinant human IL-12 was added to a final concentration of 1.7 ng/ml. Plates were then placed back on the plate shaker in the incubator for an additional 5, 5, 10, and 25 minutes respectively upon which the plates were removed from the incubator, sealed with a plate sealer and the cells pelleted at 400×g for 5 minutes. After pelleting, the media was removed by aspiration and the cells were lysed in assay specific cell lysis buffer. The levels of phospho-STAT5 were determined using a Phospho (Tyr694)STAT5a,b Whole Cell Lysate kit from Meso Scale Discovery. Levels of phospho-STAT1 were determined using a CST-PathScan Phospho-STAT1 (Tyr701) Sandwich ELISA kit. Levels of phospho-STAT4 were determined using a Phospho-STAT4 (Tyr693) Whole Cell Lysate kit from Meso Scale Discovery.

JAK1 = molecular target: T1, JAK1 (Homo sapiens, UniProt P23458); assay: JAK1 enzyme activity assay (Thermo Fisher Selectscreen, Z-lyte); format: biochemical; details: read-out: JAK1 Inhibition IC50
T1 construct: purchased Thermo Fisher Scientific (SelectScreen service)
Experimental: (§2) The inhibitory potency of candidate compounds of JAK1, JAK2, and Tyk-2 was done at Thermo Fisher Scientific in their Selectscreen using a Z-lyte assay. Following are the assay details for each enzyme.
JAK1: The 2×JAK-enzyme/Tyr 06 mixture is prepared in 50 mM HEPES pH 6.5, 0.01% BRIJ-35, 10 mM MgCl2, 1 mM EGTA, 0.02% NaN3. The final 10 μL of the Kinase Reaction consists of 21.2-91.5 ng JAK1 and 2 μM Tyr 06 in 50 mM HEPES pH 7.0, 0.01% BRIJ-35, 10 mM MgCl2, 1 mM EGTA, 0.01% NaN3. After the one hour Kinase Reaction incubation, 5 μL of a 1:128 dilution of Development Reagent is added.
(§3) Data reduction for JAK1, JAK2 and TYK2 is done the same, independent of the enzyme run. In summary, background signal is defined in the absence of enzyme and uninhibited signal is defined in the presence of vehicle (2% DMSO) alone. Compounds were evaluated in an 11 point dose-response ranging from […] to 0.34 nM. IC50 values of compounds are determined using a 4 parameter logistical fit of emission ratio as a function of the concentration of compound.

[2] = test system: IL-12 stimulated STAT4 phosphorylation on Tyr693 (JAK2/TYK2); assay: JAK2/TYK2 cellular target modulation: IL-12 stimulated phospho-STAT4 in human PBMC; format: cell-based; details: IL-12 1.7 ng/ml, read-out: IL12-STAT4 IC50
Description: as §1

[3] = test system: IL-2 stimulated STAT5 phosphorylation on Tyr694 (JAK1/3); assay: JAK1/3 cellular target modulation: IL-2 stimulated phospho-STAT5 in human PBMC; format: cell-based; details: IL-2 25 ng/ml, read-out: IL2-STAT5 IC50
Description: as §1

JAK2 = molecular target: T2, JAK2 (Homo sapiens, UniProt O60674); assay: JAK2 enzyme activity assay (Thermo Fisher Selectscreen, Z-lyte); format: biochemical; details: read-out: JAK2 Inhibition IC50
T2 construct: purchased Thermo Fisher Scientific (SelectScreen service)
Experimental: as §2
JAK2: The 2×JAK2/Tyr 06 mixture is prepared in 50 mM HEPES pH 7.5, 0.01% BRIJ-35, 10 mM MgCl2, 1 mM EGTA. The final 10 μL Kinase Reaction consists of 0.12-0.5 ng JAK2 and 2 μM Tyr 06 in 50 mM HEPES pH 7.5, 0.01% BRIJ-35, 10 mM MgCl2, 1 mM EGTA. After the one hour Kinase Reaction incubation, 5 μL of a 1:128 dilution of Development Reagent A is added.
as §3

JAK3 (a.a. 781-1124) = molecular target: T3, JAK3 (a.a. 781-1124) (Homo sapiens, UniProt P52333); assay: JAK3 enzyme activity assay (SRCtide phosphorylation, Caliper); format: biochemical; details: 1 uM ATP; read-out: JAK3 Inhibition IC50
T3 construct: JAK3 (a.a. 781-1124, ThermoFisher); purchased ThermoFisher
Experimental: The activity of JAK3 (a.a. 781-1124, ThermoFisher) was quantified by measuring the phosphorylation of SRCtide (FAM-GEEPLYWSFPAKKK-NH2). Kinase reactions were run in a 384-well Greiner plate with 2% final DMSO concentration under the buffer conditions of 20 mM HEPES, pH 7.5, 10 mM MgCl2, 0.01% BSA, and 0.0005% Tween-20. The kinase reaction components were 2.5 nM JAK3, 1 μM SRCtide peptide and 1 uM ATP. Examples were tested in dose-response starting at […] (11 concentrations, 3-fold serial dilution, duplicate reactions). The reactions were incubated at room temperature for 40 minutes, then stopped by adding a 1:1 volume of 30 mM EDTA in 20 mM HEPES, pH 7.5 (15 mM EDTA final). After the reaction was stopped, the phosphorylated and unphosphorylated peptides were separated and quantified using a Caliper LC3000/EZ-Reader system and HTS Well Analyzer Software (Caliper, A PerkinElmer Company, Hopkinton, Mass.). GraFit (Erithacus Software Ltd., Horley, U.K.) was used to calculate inhibitor potency by fitting dose-response data to the 4-parameter logistical IC50 equation.

Tyk-2 = molecular target: T4, Tyk-2 (Homo sapiens, UniProt P29597); assay: Tyk-2 enzyme activity assay (Thermo Fisher Selectscreen, Z-lyte); format: biochemical; details: read-out: Tyk-2 Inhibition IC50
T4 construct: purchased Thermo Fisher Scientific (SelectScreen service)
Experimental: as §2
TYK2: The 2×TYK2/Tyr 03 mixture is prepared in 50 mM HEPES pH 6.5, 0.01% BRIJ-35, 10 mM MgCl2, 1 mM EGTA, 0.02% NaN3. The final 10 μL Kinase Reaction consists of 3.75-15 ng TYK2 and 2 μM Tyr 03 in 50 mM HEPES pH 7.0, 0.01% BRIJ-35, 10 mM MgCl2, 1 mM EGTA, 0.01% NaN3. After the one hour KinaseReaction incubation, 5 μL of a 1:4096 dilution of Development Reagent A is added.
as §3

T3 sequence (P52333 781-1124): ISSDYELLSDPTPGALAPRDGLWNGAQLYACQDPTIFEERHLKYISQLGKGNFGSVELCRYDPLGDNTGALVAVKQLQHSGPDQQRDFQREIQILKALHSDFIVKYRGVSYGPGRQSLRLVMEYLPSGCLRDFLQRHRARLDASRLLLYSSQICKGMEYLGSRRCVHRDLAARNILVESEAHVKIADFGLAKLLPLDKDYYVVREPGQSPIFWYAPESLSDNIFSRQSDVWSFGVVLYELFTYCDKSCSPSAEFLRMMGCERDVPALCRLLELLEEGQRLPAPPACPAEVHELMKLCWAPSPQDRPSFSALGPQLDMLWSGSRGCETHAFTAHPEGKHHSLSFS
T4 sequence (P29597 whole entry): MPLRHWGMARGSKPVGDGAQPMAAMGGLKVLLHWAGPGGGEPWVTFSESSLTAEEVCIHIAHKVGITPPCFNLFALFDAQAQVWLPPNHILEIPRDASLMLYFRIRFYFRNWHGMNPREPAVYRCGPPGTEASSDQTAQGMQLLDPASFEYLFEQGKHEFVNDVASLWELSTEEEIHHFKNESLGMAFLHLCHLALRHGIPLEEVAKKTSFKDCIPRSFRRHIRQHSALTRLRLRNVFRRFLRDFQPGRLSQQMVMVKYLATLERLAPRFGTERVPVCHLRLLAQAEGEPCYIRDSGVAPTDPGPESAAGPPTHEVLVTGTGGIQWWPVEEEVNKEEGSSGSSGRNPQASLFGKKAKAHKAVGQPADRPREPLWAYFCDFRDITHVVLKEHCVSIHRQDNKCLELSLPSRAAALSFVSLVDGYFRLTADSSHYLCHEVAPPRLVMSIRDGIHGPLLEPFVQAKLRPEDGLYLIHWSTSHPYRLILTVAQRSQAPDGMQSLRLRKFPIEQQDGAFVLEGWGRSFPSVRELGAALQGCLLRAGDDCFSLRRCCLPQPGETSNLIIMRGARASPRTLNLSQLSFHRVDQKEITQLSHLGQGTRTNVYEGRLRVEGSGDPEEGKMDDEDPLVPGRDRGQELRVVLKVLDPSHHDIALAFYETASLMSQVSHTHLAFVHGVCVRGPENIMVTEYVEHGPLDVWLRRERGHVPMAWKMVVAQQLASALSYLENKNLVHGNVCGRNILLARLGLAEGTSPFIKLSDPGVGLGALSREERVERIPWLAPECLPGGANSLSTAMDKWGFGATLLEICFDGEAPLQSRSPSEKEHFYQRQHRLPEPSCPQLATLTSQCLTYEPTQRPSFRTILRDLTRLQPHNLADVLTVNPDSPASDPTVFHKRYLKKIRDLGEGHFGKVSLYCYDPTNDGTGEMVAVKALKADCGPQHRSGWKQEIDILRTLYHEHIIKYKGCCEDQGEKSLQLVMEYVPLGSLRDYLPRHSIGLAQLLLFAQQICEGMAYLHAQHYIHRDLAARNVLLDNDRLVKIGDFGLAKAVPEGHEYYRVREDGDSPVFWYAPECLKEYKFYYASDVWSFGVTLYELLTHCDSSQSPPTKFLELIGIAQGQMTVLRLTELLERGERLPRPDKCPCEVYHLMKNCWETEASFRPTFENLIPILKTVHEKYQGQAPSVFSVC
T2 sequence (O60674 whole entry): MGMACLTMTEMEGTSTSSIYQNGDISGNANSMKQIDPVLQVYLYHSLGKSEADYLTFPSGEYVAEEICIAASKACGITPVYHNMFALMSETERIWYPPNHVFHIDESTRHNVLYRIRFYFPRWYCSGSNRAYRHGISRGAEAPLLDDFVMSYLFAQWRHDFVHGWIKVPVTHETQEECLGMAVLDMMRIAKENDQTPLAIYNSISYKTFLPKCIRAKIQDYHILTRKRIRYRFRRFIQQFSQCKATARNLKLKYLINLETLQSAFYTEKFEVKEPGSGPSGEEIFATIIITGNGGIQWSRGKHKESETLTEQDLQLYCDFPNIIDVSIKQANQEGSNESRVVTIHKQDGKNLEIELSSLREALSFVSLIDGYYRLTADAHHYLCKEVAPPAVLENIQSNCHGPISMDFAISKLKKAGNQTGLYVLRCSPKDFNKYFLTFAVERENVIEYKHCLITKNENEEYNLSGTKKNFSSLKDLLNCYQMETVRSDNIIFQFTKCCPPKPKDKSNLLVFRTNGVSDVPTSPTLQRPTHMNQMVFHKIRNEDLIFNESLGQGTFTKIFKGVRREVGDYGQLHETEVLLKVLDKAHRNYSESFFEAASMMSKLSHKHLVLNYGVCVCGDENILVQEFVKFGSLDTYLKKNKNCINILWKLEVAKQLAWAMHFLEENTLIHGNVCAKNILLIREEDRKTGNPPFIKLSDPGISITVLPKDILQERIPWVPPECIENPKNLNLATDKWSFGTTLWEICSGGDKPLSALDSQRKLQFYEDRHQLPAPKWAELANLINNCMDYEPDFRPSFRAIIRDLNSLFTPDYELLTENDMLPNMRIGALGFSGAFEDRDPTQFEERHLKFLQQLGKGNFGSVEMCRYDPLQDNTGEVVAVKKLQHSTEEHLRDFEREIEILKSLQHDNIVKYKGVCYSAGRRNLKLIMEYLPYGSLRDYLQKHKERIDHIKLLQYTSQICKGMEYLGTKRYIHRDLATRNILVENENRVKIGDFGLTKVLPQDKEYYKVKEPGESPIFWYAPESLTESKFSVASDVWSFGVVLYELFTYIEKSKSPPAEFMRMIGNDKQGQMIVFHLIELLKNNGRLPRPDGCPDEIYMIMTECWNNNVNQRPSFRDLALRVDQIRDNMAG
T1 sequence (P23458 whole entry): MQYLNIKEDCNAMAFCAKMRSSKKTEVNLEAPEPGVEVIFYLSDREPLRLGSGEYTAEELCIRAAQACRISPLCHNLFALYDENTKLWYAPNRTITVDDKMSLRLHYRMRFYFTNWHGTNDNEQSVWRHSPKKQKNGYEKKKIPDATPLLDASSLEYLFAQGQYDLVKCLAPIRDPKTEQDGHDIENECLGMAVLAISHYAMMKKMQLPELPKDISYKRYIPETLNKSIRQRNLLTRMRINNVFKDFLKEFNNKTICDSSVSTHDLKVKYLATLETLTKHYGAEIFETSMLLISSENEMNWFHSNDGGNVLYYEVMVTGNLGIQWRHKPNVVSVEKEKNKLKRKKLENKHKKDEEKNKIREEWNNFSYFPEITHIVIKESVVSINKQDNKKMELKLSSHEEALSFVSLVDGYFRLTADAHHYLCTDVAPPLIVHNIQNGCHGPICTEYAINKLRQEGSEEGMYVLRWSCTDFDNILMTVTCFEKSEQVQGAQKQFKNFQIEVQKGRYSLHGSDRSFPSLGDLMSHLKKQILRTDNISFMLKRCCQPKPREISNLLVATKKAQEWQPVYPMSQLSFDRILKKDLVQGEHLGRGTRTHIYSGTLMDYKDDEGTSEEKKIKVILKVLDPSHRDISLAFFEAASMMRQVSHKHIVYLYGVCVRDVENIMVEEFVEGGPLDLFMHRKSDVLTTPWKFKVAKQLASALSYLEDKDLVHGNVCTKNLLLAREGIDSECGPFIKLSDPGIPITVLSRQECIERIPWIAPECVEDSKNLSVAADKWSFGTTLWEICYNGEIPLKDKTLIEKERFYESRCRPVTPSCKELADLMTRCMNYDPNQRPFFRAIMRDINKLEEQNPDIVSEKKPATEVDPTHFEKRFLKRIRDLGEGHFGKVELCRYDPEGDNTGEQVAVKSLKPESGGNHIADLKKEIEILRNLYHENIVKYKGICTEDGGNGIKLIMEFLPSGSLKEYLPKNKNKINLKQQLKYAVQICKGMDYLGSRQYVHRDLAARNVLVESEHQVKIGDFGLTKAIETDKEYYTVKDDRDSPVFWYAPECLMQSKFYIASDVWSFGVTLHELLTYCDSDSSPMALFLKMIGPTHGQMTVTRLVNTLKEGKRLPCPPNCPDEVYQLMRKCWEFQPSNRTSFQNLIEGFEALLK

SMILES | IC50 [1] [nM] | IC50 (JAK1) [nM] | IC50 [2] [nM] | IC50 [3] [nM] | IC50 (JAK2) [nM] | IC50 (JAK3 (a.a. 781-1124)) [nM] | IC50 (Tyk-2) [nM]
N#Cc1cccc(S(=O)(=O)N[C@H]2C[C@@H](Nc3c(-c4ccncn4)cnc4[nH]ccc34)C2)c1 [Example 64, 3-cyano-N-((1s,3s)-3-((5-(pyrimidin-4-yl)-1H-pyrrolo[2,3-b]pyridin-4-yl)amino)cyclobutyl)benzenesulfonamide] | 100 to 1000 | ≤ 10 | > 1000 | ≤ 100 | ≤ 10 | ≤ 10 | ≤ 10
CNC(=O)c1csc(-c2cnc3[nH]ccc3c2N[C@H]2C[C@@H](NS(=O)(=O)c3cccc(C#N)c3)C2)n1 [Example 21, 2-(4-(((1s,3s)-3-((3-cyanophenyl)sulfonamido)cyclobutyl)amino)-1H-pyrrolo[2,3-b]pyridin-5-yl)-N-methylthiazole-4-carboxamide] | 100 to 1000 | ≤ 10 | > 1000 | 100 to 1000 | ≤ 10 | 10 to 100 | 10 to 100
CCOC(=O)c1cnc2[nH]ccc2c1N[C@H]1C[C@@H](NS(=O)(=O)c2cc(C#N)ccn2)C1 [Example 5, ethyl 4-(((1s,3s)-3-((4-cyanopyridine)-2-sulfonamido)cyclobutyl)amino)-1H-pyrrolo[2,3-b]pyridine-5-carboxylate] | 100 to 1000 | ≤ 10 | > 1000 | 100 to 1000 | 10 to 100 | 10 to 100 | 10 to 100
N#Cc1cccc(S(=O)(=O)N[C@H]2C[C@@H](Nc3c(-c4ncco4)cnc4[nH]ccc34)C2)c1 [Example 7, 3-cyano-N-((1s,3s)-3-((5-(oxazol-2-yl)-1H-pyrrolo[2,3-b]pyridin-4-yl)amino)cyclobutyl)benzenesulfonamide] | 100 to 1000 | ≤ 10 | > 1000 | 100 to 1000 | ≤ 10 | 10 to 100 | 10 to 100
CNC(=O)c1ccnc(-c2cnc3[nH]ccc3c2N[C@H]2C[C@@H](NS(=O)(=O)c3cccc(C#N)c3)C2)c1 [Example 66, 2-(4-(((1s,3s)-3-((3-cyanophenyl)sulfonamido)cyclobutyl)amino)-1H-pyrrolo[2,3-b]pyridin-5-yl)-N-methylisonicotinamide] | > 1000 | ≤ 10 | > 1000 | 100 to 1000 | 10 to 100 | 100 to 1000 | 10 to 100
Cc1nnc(-c2cnc3[nH]ccc3c2N[C@H]2C[C@@H](NS(=O)(=O)c3cccc(C#N)c3)C2)o1 [Example 81, 3-cyano-N-((1s,3s)-3-((5-(5-methyl-1,3,4-oxadiazol-2-yl)-1H-pyrrolo[2,3-b]pyridin-4-yl)amino)cyclobutyl)benzenesulfonamide] | 100 to 1000 | ≤ 10 | > 1000 | ≤ 100 | ≤ 10 | 10 to 100 | 10 to 100
Cc1cnc(-c2cnc3[nH]ccc3c2N[C@H]2C[C@@H](NS(=O)(=O)c3cccc(C#N)c3)C2)s1 [Example 74, 3-cyano-N-((1s,3s)-3-((5-(5-methylthiazol-2-yl)-1H-pyrrolo[2,3-b]pyridin-4-yl)amino)cyclobutyl)benzenesulfonamide] | 100 to 1000 | ≤ 10 | 100 to 1000 | ≤ 100 | 10 to 100 | ≤ 10 | 10 to 100
CCCS(=O)(=O)N[C@H]1C[C@@H](Nc2c(-c3nc(C(=O)NC)cs3)cnc3[nH]ccc23)C1 [Example 72, N-methyl-2-(4-(((1s,3s)-3-(propylsulfonamido)cyclobutyl)amino)-1H-pyrrolo[2,3-b]pyridin-5-yl)thiazole-4-carboxamide] | > 1000 | 10 to 100 | > 1000 | 100 to 1000 | 10 to 100 | 10 to 100 | 100 to 1000
CCCS(=O)(=O)N[C@H]1C[C@@H](Nc2c(-c3nccs3)cnc3[nH]ccc23)C1 [Example 70, N-((1s,3s)-3-((5-(thiazol-2-yl)-1H-pyrrolo[2,3-b]pyridin-4-yl)amino)cyclobutyl)propane-1-sulfonamide] | 100 to 1000 | ≤ 10 | > 1000 | ≤ 100 | 10 to 100 | 10 to 100 | 10 to 100
